Source: PubChem BioAssay (NCI)
“And” between values parts separate entries of the source, which are not always exact repeats. Equal entries are not always repeated.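 Results reflect a 48-hour exposure of cells in 96-well plates to compound at five concentrations. GI50 marks 50% less growth. Definition used: TGI = concentration required for complete inhibition of growth.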

Assays:
Assay in all cases: NCI anticancer screen, dose series, 48 h
EKVX NSCLC = system: EKVX NSCLC
HCC-2998 colon = system: HCC-2998 colon
HCT-116 colon = system: HCT-116 colon
HCT-15 colon = system: HCT-15 colon
HOP-62 NSCLC = system: HOP-62 NSCLC
IGROV1 ovarian = system: IGROV1 ovarian
K-562 leukemia = system: K-562 leukemia
NCI-H226 lung = system: NCI-H226 lung
NCI-H23 lung = system: NCI-H23 lung
OVCAR-8 ovarian = system: OVCAR-8 ovarian

SMILES | GI50 (EKVX NSCLC) | TGI (EKVX NSCLC) | GI50 (HCC-2998 colon) | TGI (HCC-2998 colon) | GI50 (HCT-116 colon) | TGI (HCT-116 colon) | GI50 (HCT-15 colon) | TGI (HCT-15 colon) | GI50 (HOP-62 NSCLC) | TGI (HOP-62 NSCLC) | GI50 (IGROV1 ovarian) | TGI (IGROV1 ovarian) | GI50 (K-562 leukemia) | TGI (K-562 leukemia) | GI50 (NCI-H226 lung) | TGI (NCI-H226 lung) | GI50 (NCI-H23 lung) | TGI (NCI-H23 lung) | GI50 (OVCAR-8 ovarian) | TGI (OVCAR-8 ovarian)
NC(=O)c1nnn(Cc2cc(Cl)c(C(=O)c3ccc(Cl)cc3)c(Cl)c2)c1N | > 9.09 µM | > 9.09 µM and 37.5 µM | 6.15 µM | > 9.09 µM and 17.9 µM | > 9.09 µM | > 9.09 µM and 35.2 µM | > 9.09 µM | > 9.09 µM and 39.7 µM | > 9.09 µM | > 9.09 µM and 41.1 µM | > 9.09 µM | > 9.09 µM and 44.2 µM | 2.19 µM | > 70.2 µM | > 9.09 µM | > 9.09 µM and 55.8 µM | > 9.09 µM | > 9.09 µM and 43 µM | > 9.09 µM | > 9.09 µM and 40.8 µM
C=CCCC(O)c1ccc(C(O)CCCCCCCCCCCC)o1 (stereo not given) | 23.9 µM | 50.4 µM | 21.4 µM | 37.2 µM | 14.8 µM | 28.6 µM | 16.2 µM | 31.6 µM | 19.1 µM | 34.8 µM | 18.7 µM | 43.2 µM | 9.29 µM | 27.2 µM | 21.7 µM | 43.9 µM | 19.3 µM | 34.7 µM | 13.5 µM | 30.3 µM
O=C(Nc1ncc(Cc2ccccc2)s1)c1ccc2c(c1)OCCO2 | 0.133 µM | > 100 µM | 0.0729 µM | 1.63 µM | 0.0405 µM | > 100 µM | 0.0385 µM | > 100 µM | 0.078 µM | > 100 µM | 0.0761 µM | > 100 µM | 0.0383 µM | > 100 µM | 0.278 µM | 7.01 µM | 0.0679 µM | > 100 µM | 0.0591 µM | > 100 µM
O=C(O)c1cc(N/C=C2\C(=O)c3ccccc3OC2O)ccc1O (stereo not given) | 24.3 µg/mL | 78.5 µg/mL | 27.4 µg/mL | 50.2 µg/mL | 19.8 µg/mL | 51 µg/mL | 15.7 µg/mL | 44.7 µg/mL | 29.8 µg/mL | 75.3 µg/mL | 20.6 µg/mL | 61.8 µg/mL | 13.3 µg/mL | 72.1 µg/mL | 37.7 µg/mL | 98.1 µg/mL | 20.4 µg/mL | 59.6 µg/mL | 27.4 µg/mL | > 150 µg/mL
O=C(CSc1nc2ccc([N+](=O)[O-])cc2[nH]1)Nc1cccc(Cl)c1 | 2.27 µM | 12.6 µM | 3.17 µM | 13.6 µM | 2.81 µM | 11.7 µM | 3.06 µM | 15 µM | 2.79 µM | 13 µM | 3.1 µM | 18.3 µM | 2.74 µM | > 100 µM | 2.38 µM | 9.93 µM | 2.26 µM | 9.3 µM | 3.02 µM | > 39.1 µM
COc1ccc(-c2cn(-c3ccc(Cl)cc3)c(=S)[nH]2)cc1OC | 13.2 µM | > 100 µM | 56.2 µM | > 100 µM | 3.96 µM | > 100 µM | 5.22 µM | > 100 µM | 21.5 µM | > 100 µM | 7.08 µM | > 100 µM | > 100 µM | > 100 µM | 3.62 µM | > 100 µM | > 100 µM | > 100 µM | 46.7 µM | > 100 µM
O=C(/C=C/C=C/c1ccccc1)c1ccc(Nc2nc(Nc3ccccc3)nc(Nc3ccccc3)n2)cc1 | 88.2 µM | > 100 µM | > 100 µM | > 100 µM | 12.2 µM | > 100 µM | > 100 µM | > 100 µM | > 100 µM | > 100 µM | 0.627 µM | > 100 µM | 7.73 µM | 37.2 µM | > 100 µM | > 100 µM | > 100 µM | > 100 µM | 31.4 µM | > 100 µM
O=S(=O)(O)c1ccc(Cl)cc1.[Cd] | 80.6 µM | > 100 µM | > 100 µM | > 100 µM | > 100 µM | > 100 µM | > 100 µM | > 100 µM | > 100 µM | > 100 µM | 20.9 µM | 43.2 µM | 37.5 µM | > 100 µM | > 100 µM | > 100 µM | 23.2 µM | 82.3 µM | > 100 µM | > 100 µM
CCOC(=O)C1=C(N)Oc2c(sc3c(C)cccc23)C1c1ccc(Cl)cc1 (stereo not given) | 3.75 µM | 17.1 µM | 2.32 µM | 6.63 µM | 2.83 µM | 12.1 µM | 2.02 µM | 10.6 µM | 3.81 µM | 21.8 µM | 0.962 µM | 15.4 µM | 1.32 µM | > 100 µM | 5.02 µM | 19.8 µM | 2.5 µM | 10.5 µM | 4.24 µM | 20.7 µM
CN(C)c1ccccc1CC(c1c[nH]c2ccccc12)c1c[nH]c2ccccc12 | – | 18.1 µM | – | 22.6 µM | – | 23.3 µM | – | 28.8 µM | – | 23.3 µM | – | 30.9 µM | – | 32.9 µM | – | 25.7 µM | – | 21.3 µM | – | 26.1 µM
Nc1ccccc1/C=N\Nc1ccccc1 | 77.1 µM | > 100 µM | 3.16 µM | > 100 µM | > 100 µM | > 100 µM | 5.13 µM | > 100 µM | > 100 µM | > 100 µM | > 100 µM | > 100 µM | 3.24 µM | > 100 µM | > 100 µM | > 100 µM | > 100 µM | > 100 µM | > 100 µM | > 100 µM
Nc1nc(=O)n(C2CC(O)C(O)C(CO)O2)cc1F (stereo not given) | – | > 100 µM | – | > 100 µM | – | > 100 µM | – | > 100 µM | – | > 100 µM | – | > 100 µM | – | > 100 µM | – | > 100 µM | – | > 100 µM | – | > 100 µM
CCCCCCCCCCCCOC1C(CNC(=O)C2OC3OC(C)(C)OC3C2NC(=O)CN2CCN(c3ccccn3)CC2)OC2OC(C)(C)OC21 (stereo not given) | 1.7 µM | 3.14 µM | 6.18 µM | 19.7 µM | 1.61 µM | 3.04 µM | 1.76 µM | 3.31 µM | 1.94 µM | 3.53 µM | 1.87 µM | 3.45 µM | 1.67 µM | 4.56 µM | 1.82 µM | 3.72 µM | 4.16 µM | 9.1 µM | 1.62 µM | 3.15 µM
C[N+](C)(C)CCC(=O)N1C/C(=C\c2ccccc2)C(=O)/C(=C/c2ccccc2)C1 | – | 35.9 µM | – | 13.2 µM | – | 2.98 µM | – | 6.49 µM | – | 33.6 µM | – | 13.4 µM | – | 6.3 µM | – | 20 µM | – | 23.3 µM | – | 8.44 µM
Cc1ccc(Cl)cc1Nc1nc(C(F)(F)F)ccc1C(=O)N/N=C/c1c(Cl)cccc1Cl | 0.507 µM | 3.71 µM | 1.24 µM | 31.5 µM | 0.355 µM | 1.58 µM | 0.41 µM | 12.8 µM | 0.745 µM | 2.29 µM | 0.994 µM | > 68.9 µM | 0.734 µM | > 32.1 µM | 1.1 µM | 4.53 µM | 1.55 µM | 7.39 µM | 0.85 µM | > 50.3 µM
N#Cc1ccc(/C=N\N2C(=O)c3ccccc3C2=O)cc1 | – | > 100 µM | – | > 100 µM | – | > 100 µM | – | > 100 µM | – | > 100 µM | – | > 100 µM | – | > 100 µM | – | > 100 µM | – | > 100 µM | – | > 100 µM
O=C(c1ccccn1)c1nnn2ccccc12 | – | > 100 µM | – | > 100 µM | – | > 100 µM | – | > 100 µM | – | > 100 µM | – | > 100 µM | – | > 100 µM | – | > 100 µM | – | > 100 µM | – | > 100 µM
CCCN(CCC)c1ccc(C=O)cc1 | 30.2 µM | > 100 µM | > 67.5 µM | > 100 µM | 39.7 µM | > 100 µM | > 84.2 µM | > 100 µM | > 88 µM | > 100 µM | > 84.4 µM | > 100 µM | 25.7 µM | > 100 µM | 30 µM | > 100 µM | 36.9 µM | > 100 µM | 61.9 µM | > 100 µM
COC1OCC(OS(=O)(=O)c2ccc(C)cc2)C(OC(=O)c2ccccc2)C1OC(=O)c1ccccc1 (stereo not given) | 45.3 µM | > 100 µM | > 100 µM | > 100 µM | 3.45 µM | > 100 µM | 5.3 µM | > 100 µM | 3.18 µM | > 100 µM | 6.4 µM | > 100 µM | 3.16 µM | > 100 µM | > 100 µM | > 100 µM | > 100 µM | > 100 µM | > 100 µM | > 100 µM
CCOC(=O)c1c[nH]c2c(OCc3ccccc3)c3ccccc3c(O)c2c1=O | 6.98 µM | 52.7 µM | 37.4 µM | > 100 µM | 3.74 µM | > 51.8 µM | 11.1 µM | > 100 µM | 14.4 µM | 42.9 µM | 34.4 µM | > 100 µM | 3.15 µM | > 39.1 µM | 4.28 µM | 20.8 µM | 6.75 µM | 28.6 µM | 5.6 µM | 41.3 µM
COc1ccc2nc3cc(Cl)ccc3c(NCCC(=O)OCC(O)C(O)C(O[C@H](C)C(=O)NC(C)C(=O)NC(CCC(N)=O)C(=O)OCc3ccccc3)C(C=O)NC(C)=O)c2c1 (stereo not given in full) | – | 36.9 µM | – | 33.6 µM | – | 31.9 µM | – | 52.4 µM | – | 33.9 µM | – | 30.2 µM | – | 68 µM | – | 37.8 µM | – | 27.5 µM | – | 30.5 µM
Cn1c(=O)nc2n(-c3ccc(F)cc3)c3ccccc3nc-2c1=O | – | 32 µM | – | 49.8 µM | – | 37.9 µM | – | 37.4 µM | – | > 100 µM | – | 56.5 µM | – | 45.8 µM | – | > 100 µM | – | 42.8 µM | – | 67.4 µM
O=C1Nc2ccccc2C1(c1ccc(O)c(F)c1)c1ccc(O)c(F)c1 | 4.31 µM | 43.5 µM | 4.72 µM | 25.3 µM | 11.6 µM | 52.7 µM | 8.34 µM | 34.4 µM | 16.9 µM | 44.5 µM | 3.19 µM | 50.6 µM | 11.6 µM | > 100 µM | 11 µM | 39.7 µM | 0.532 µM | 25.2 µM | 0.333 µM | 3.49 µM
